# Results reported in patent US20110288036A1, “Methods for Treating or Preventing Vascular Graft Failure” (priority 2010, published 2011).
# Key:
# [1] = test system: human endothelial cell (EC); experiment: Phase contrast morphology, endothelial cells; format: cell-based; conditions: 24 hours treatment, vs control cells
# Description: In order to determine the effect of pharmacological doses of MMI-0100 ([…]; SEQ ID NO: 1) on human endothelial cell (EC) and smooth muscle cell (SMC) proliferation, human EC and SMC cultures were treated with three concentrations (0.25 mM, 0.5 mM, and 1 mM) of MMI-0100 ([…] (SEQ ID NO: 1)) following pre-treatment with TNF-α.
# [2] = test system: mouse lung endothelial cells (MLEC); experiment: Murine endothelial cell proliferation by direct cell counting; format: cell-based; conditions: physiological doses
# Description: Primary cultures of mouse lung endothelial cells (MLEC) were isolated as previously described (Ackah, E. et al., J. Clin Invest., 2005, 115(8): 2119-27; Muto, A. et al., J. Exp. Med., 2011, 208(3): 561-575). Mouse lung endothelial cells (MLECs) were isolated from 3-week-old wild type mice. Briefly, mice were euthanized with an overdose of ketamine/xylazine and the lungs excised, minced, and digested with 0.1% collagenase in RPMI medium. The digest was homogenized by passing multiple times through a 14-gauge needle, filtered through a 150-μm tissue sieve, and the cell suspension was plated on 0.1% gelatin-coated dishes. Endothelial cells were then isolated by immunoselection with PECAM-1- and ICAM-2-conjugated magnetic beads. After immunoselection with magnetic beads, endothelial cells were immortalized with polyoma middle T-antigen. Isolated MLEC were maintained with EBM-2/EGM-2 MV SingleQuot® Kit Supplement & Growth Factors (Lonza) containing 15% fetal bovine serum. Cell proliferation in MLEC was measured at 24 and 72 hours after MMI-0100 treatment by direct cell counting after trypsin treatment.
# [3] = test system: THP-1 cells; experiment: Cytokine ELISA in PMA/LPS-activated THP-1 cells; format: cell-based, human; conditions: PMA then LPS
# Description: The ability of MMI-0100 ([…]; SEQ ID NO: 1) to inhibit the production of inflammatory cytokines (TNF-α and IL-1β) in vitro was examined using THP-1 cells. Briefly, THP-1 cells were activated with PMA for 24 hours, and treated subsequently with 10 μg of LPS. The amount of inflammatory cytokines (TNF-α and IL-1β, pg/ml) produced in the medium in the presence or absence of increasing concentrations (1 μM, 3 μM, 10 μM, and 30 μM) of MMI-0100 ([…]; SEQ ID NO: 1) was determined by cytokine specific enzyme-linked immunosorbent assay (ELISA). Analysis of inflammatory cytokines (TNF-α and IL-1β) was performed with cytokine-specific ELISA kit (PeproTech, Inc., Rocky Hill, N.J.). The cytokine-specific ELISA employs highly-purified anti-cytokine antibodies (capture antibodies) that are noncovalently adsorbed (“coated”) onto plastic microwell plates. After washings, the immobilized antibodies capture specifically soluble cytokine proteins present in samples applied to the plate. After washing away unbound material, the captured cytokine proteins are detected by biotin-conjugated anti-cytokine antibodies (detection antibodies) followed by an enzyme-labeled avidin or streptavidin reporter. Following addition of a chromogenic (color-developing) substrate-containing solution, the level of colored product generated by the bound, enzyme-linked, detection reagents can be measured spectrophotometrically using an ELISA-plate reader at an appropriate optical density.
# In order to prepare plates for ELISA, capture antibodies (anti-TNF-α or anti-IL-1β antibodies) were diluted with PBS to a concentration of 1 μg/ml. 100 μl of each diluted antibody was added immediately to each well of the ELISA plate. […]
# The standard was diluted from 2 ng/ml to zero in diluent, and 100 μl of the standard or sample was added immediately to each well in triplicate and incubated at room temperature for at least 2 hours. […] The level of colored product generated by the bound, enzyme-linked, detection reagents was measured spectrophotometrically using an ELISA-plate reader at an appropriate optical density.
sequence,measurement,setting,value
YARAAARQARAKALARQLGVAA [MMI-0100],morphological changes of EC,[1],no obvious morphological changes
same,murine EC proliferation,[2],did not induce significant murine EC proliferation
same,IL-1β level in the medium,"[3]; 30 μM, PMA/LPS alone about 450 pg/ml",about 100 pg/ml
same,TNF-α level in the medium,"[3]; 30 μM, PMA/LPS alone about 1000 pg/ml",about 300 pg/ml
same,production of pro-inflammatory cytokines (TNF-α and IL-1β),"[3]; 1, 3, 10 and 30 μM","inhibits the production of pro-inflammatory cytokines (i.e., TNF-α and IL-1β) in a dose-dependent manner"
